US11278563B2, “Rapid release pharmaceutical formulations containing algal cellulose” (priority 2016, dated 2022)
Blank lines part the entries; values can stand above or below the molecule they belong to.

Experiments:
[1] = Degree of drug crystallinity from weight normalized melting enthalpies (TGA heat flow); assay type: physicochemical
Experimental: TGA was conducted on a Mettler TG50 apparatus (10 K min^−1; 35° C. to 20° C. above the melting point of the drug) on 10-20 mg samples in aluminium crucibles under a nitrogen atmosphere (60 mL min^−1). Both normal and heated 10% mixtures were analysed and compared to the pure crystalline substance of corresponding drug content, i.e. 1-2 mg. The temperature in the furnace was continuously monitored, and the heat flow curves were collected both for heating and cooling phase to record melting or re-crystallization events.
The weight normalized enthalpies of melting observed in cellulose-drug mixtures were calculated using the STARe Excellence software (Mettler Toledo) and compared to the weight normalized enthalpy for the pure crystalline drug, to give a rough estimate of the degree of the drug crystallinity (“Crl”) as follows.
[formula] where ΔHmelt is weight normalised melting enthalpy of the drug in a specific cellulose-drug blend [in Joules/g] and ΔHdrug is the melting enthalpy of a pure crystalline drug [in Joules/g]. X-Ray Diffraction (XRD)

[2] = DSC melting enthalpy and degree of crystallinity of FFA in cellulose mixtures; assay type: physicochemical; conditions: degree of crystallinity of FFA from DSC melting enthalpy, about 10 wt % FFA, n = 3
Experimental: Thermal analysis was performed with TA instrument (Model Q-2000) on both cellulose-drug mixtures and pure substances. Samples were placed inside hermetically sealed aluminium crucibles with punctured lids, in order to avoid overpressure caused by water evaporation. An empty pan was used as a reference. The analysis was conducted in the temperature range from −40° C. to 150° C. with a heating rate of 10° C. min^−1. N2 gas, at a flow of 50 mL min^−1, was applied during analysis. Initially the samples were cooled from room temperature to −40° C., then heated to 150° C. and finally cooled to 25° C. again. All of the samples were stored at ambient conditions for 24 hours prior to DSC measurements. For the heated cellulose-FFA mixtures the heating conditions were 120° C. for 2 hours.
The measurements were performed in triplicate, and the estimated amount of drug in the mixtures was 10 wt %.

CrlPRO (%) ([1]; melting event): 100%
SMILES: CC(=O)[C@H]1CC[C@H]2[C@@H]3CCC4=CC(=O)CC[C@]4(C)[C@H]3CC[C@]12C [PRO, progesterone]

CrlFFA.% [2]: 100%
SMILES: O=C(O)c1ccccc1Nc1cccc(C(F)(F)F)c1 [FFA, flufenamic acid]

CrlNAP (%) ([1]; melting event): 100% | CrlNAP (%) ([1]; recrystallisation event of pure NAP (NAP recryst.)): 76%
SMILES: COc1ccc2cc([C@H](C)C(=O)O)ccc2c1 [NAP, naproxen]
